# Measurements taken from BindingDB's records for doi:10.1016/j.bmcl.2013.03.030 (Panthera Biopharma, 2013).
# Target: Botulinum neurotoxin type A (Clostridium botulinum, UniProt P0DPI0)
# Assay: Inhibition of Clostridium botulinum BoNT/A light chain (1 to 429 amino acid) using Abz-Thr-dArg-Ile-Asp-Glu-Ala-Asn-Gln-Arg-Ala-Thr-Lys-Nle-Lys(Dnp)-NH2 as substrate after 10 mins by FRET assay
# Sequence of Botulinum neurotoxin type A (P0DPI0 2-448 limits assumed): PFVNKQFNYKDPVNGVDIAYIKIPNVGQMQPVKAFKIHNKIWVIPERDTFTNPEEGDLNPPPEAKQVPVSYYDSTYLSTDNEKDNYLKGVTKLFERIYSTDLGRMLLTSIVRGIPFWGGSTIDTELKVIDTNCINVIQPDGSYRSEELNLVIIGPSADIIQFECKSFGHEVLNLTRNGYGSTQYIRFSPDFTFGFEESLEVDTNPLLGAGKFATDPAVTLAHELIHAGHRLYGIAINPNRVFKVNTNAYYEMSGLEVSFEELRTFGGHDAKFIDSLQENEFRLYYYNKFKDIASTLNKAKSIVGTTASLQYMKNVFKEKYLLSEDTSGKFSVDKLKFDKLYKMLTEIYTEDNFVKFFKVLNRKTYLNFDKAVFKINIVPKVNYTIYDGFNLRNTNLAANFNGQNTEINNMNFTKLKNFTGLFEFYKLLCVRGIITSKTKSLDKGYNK
smiles,measurement,value
O=C(Cc1sc(N2CCCC2)nc1O)NO,Ki,> 300 µM
